Like-named read-outs stand apart in the source and are kept apart here.
What was measured:
[1] = Circular dichroism spectroscopy; assay type: physicochemical; conditions: 10 μM peptide, 50 mM Tris-HCl (pH 8.0), 10 mM NaCl, 4° C.
Experimental: CD measurements of the peptides were carried out on an Aviv 62 DS circular dichroism spectrometer (Aviv Biomedical, Lakewood, N.J.). Peptides were dissolved in 50 mM Tris-HCl (pH 8.0) and 10 mM NaCl with a total peptide concentration of 10 μM. The wavelength dependence of molar ellipticity, [θ], was monitored at 4° C. as the average of five scans, using a five-second integration time at 1.0 nm wavelength increments. Spectra were baseline-corrected against the cuvette with buffer alone. […] Thermal stability was determined by monitoring the change in CD signal at 222 nm as a function of temperature, and thermal melts were performed in two-degree intervals with a two-minute equilibration at the desired temperature, and an integration time of 30 s. Reversibility was checked by repeated scans.

[2] = system: HIV-1 JFRL; assay type: cell-based
Experimental: (§1) PBMC Infectivity Assay. PBMC were isolated from healthy blood donors by Ficoll-Hypaque centrifugation and then stimulated for 2-3 days with phytohemagglutinin (5 μg/ml) and interleukin-2 (100 U/ml). The inhibition assay was performed essentially as described previously (Trkola, A., T. Ketas, V. N. KewalRamani, F. Endorf, J. M. Binley, H. Katinger, J. Robinson, D. R. Littman, and J. P. Moore. 1998. Neutralization sensitivity of human immunodeficiency virus type 1 primary isolates to antibodies and CD4-based reagents is independent of co-receptor usage. J. Virol. 72:1876-1885; Trkola, A., W. A. Paxton, S. P. Monard, J. A. Hoxie, M. A. Siani, D. A. Thompson, L. Wu, C. R. Mackay, R. Horuk, and J. P. Moore. 1998. Genetic subtype-independent inhibition of human immunodeficiency virus type 1 replication by CC and CXC chemokines. J. Virol. 72:396-404).
(§2) Briefly, the virus inoculum was adjusted to 400-1,000 TCID50/ml in assay medium (RPMI 1640, 10% FCS, 100 U of interleukin-2 per ml, glutamine, and peptides), and 50 μl aliquots were incubated with serial dilutions of the peptide inhibitors (50 μl) for 1 h at 37° C. […] RBMC (4×10^5 in 100 μl of medium) were then added. The final concentration of virus in the cultures was 20-50 TCID50/well, corresponding to 100-250 TCID50/ml. Peptides, virus, and cells were then incubated for 5-7 days at 37° C., and the extent of viral replication was determined by p24 antigen ELISA of the culture supernatants. The viral inocula in 50% tissue culture infectious doses (TCID50) were 400-1000/ml.

[3] = system: HIV-1 CM.235; assay type: cell-based; conditions: human PBMC, 5-7 days, p24 ELISA; second line of the isolate = second separate assay; read-out: Antiviral activity IC50, HIV-1 CM.235
Experimental: as §1, §2

[4] = system: HIV-1 Case C 7/86; assay type: cell-based; conditions: human PBMC, 5-7 days, p24 ELISA; second line of the isolate = second separate assay; read-out: Antiviral activity IC50, HIV-1 Case C 7/86
Experimental: as §1, §2

[5] = system: HIV-1 BZ162; assay type: cell-based; conditions: human PBMC, 5-7 days, p24 ELISA; second line of the isolate = second separate assay; read-out: Antiviral activity IC50, HIV-1 BZ162
Experimental: as §1, §2

[6] = system: HIV-1 DJ258; assay type: cell-based; conditions: human PBMC, 5-7 days, p24 ELISA; second line of the isolate = second separate assay; read-out: Antiviral activity IC50, HIV-1 DJ258
Experimental: as §1, §2

[7] = system: HIV-1 NL4-3; assay type: cell-based
Experimental: as §1, §2

[8] = system: HIV-1 94ZW103; assay type: cell-based
Experimental: as §1, §2

[9] = system: HIV-1 UG270; assay type: cell-based
Experimental: as §1, §2

[10] = human PBMC, 5-7 days, p24 ELISA, second line of the isolate = second separate assay, read-out: Antiviral activity IC50, HIV-1 JFRL
[11] = human PBMC, 5-7 days, p24 ELISA, second line of the isolate = second separate assay, read-out: Antiviral activity IC50, HIV-1 NL4-3
[12] = human PBMC, 5-7 days, p24 ELISA, second line of the isolate = second separate assay, read-out: Antiviral activity IC50, HIV-1 94ZW103
[13] = human PBMC, 5-7 days, p24 ELISA, second line of the isolate = second separate assay, read-out: Antiviral activity IC50, HIV-1 UG270

Compound | Structure in solution by circular dichroism [1] | IC50 [2, 10] [nM] | IC50 [3] [nM] | IC50 [4] [nM] | IC50 [5] [nM] | IC50 [6] [nM] | IC50 [7, 11] [nM] | IC50 [8, 12] [nM] | IC50 [9, 13] [nM] | IC50 ([2]; JFRL) [nM] | IC50 ([7]; NL4-3) [nM] | IC50 ([8]; 94ZW103) [nM] | IC50 ([9]; UG270) [nM]
CC[C@H](C)[C@H](NC(=O)[C@H](CCCCN)NC(=O)[C@@H](NC(=O)[C@H](CC(N)=O)NC(=O)[C@H](Cc1ccccc1)NC(=O)[C@H](Cc1c[nH]c2ccccc12)NC(=O)[C@H](CC(N)=O)NC(=O)[C@H](Cc1c[nH]c2ccccc12)NC(=O)[C@H](CC(C)C)NC(=O)[C@H](CO)NC(=O)[C@H](C)NC(=O)[C@H](Cc1c[nH]c2ccccc12)NC(=O)[C@H](CCCCN)NC(=O)[C@H](CC(=O)O)NC(=O)[C@H](CC(C)C)NC(=O)[C@H](CCC(=O)O)NC(=O)[C@H](CC(C)C)NC(=O)[C@H](CC(C)C)NC(=O)[C@H](CCC(=O)O)NC(=O)[C@H](CCC(N)=O)NC(=O)[C@H](CCC(=O)O)NC(=O)[C@H](CC(N)=O)NC(=O)[C@H](CCCCN)NC(=O)[C@H](CCC(=O)O)NC(=O)[C@H](CCC(N)=O)NC(=O)[C@H](CC(C)C)NC(=O)[C@H](CC(N)=O)NC(=O)[C@H](CCC(N)=O)NC(=O)[C@H](CO)NC(=O)[C@H](CCC(=O)O)NC(=O)[C@H](CCC(=O)O)NC(=O)[C@@H](NC(=O)[C@H](CC(C)C)NC(=O)[C@H](CO)NC(=O)[C@H](Cc1c[nH]cn1)NC(=O)[C@@H](NC(=O)[C@H](CC(C)C)NC(=O)[C@H](CO)NC(=O)[C@@H](NC(=O)[C@H](Cc1ccc(O)cc1)NC(=O)[C@H](CC(N)=O)NC(=O)[C@H](CC(N)=O)NC(=O)[C@@H](NC(=O)[C@H](CCC(=O)O)NC(=O)[C@H](CCCNC(=N)N)NC(=O)[C@H](CC(=O)O)NC(=O)[C@H](Cc1c[nH]c2ccccc12)NC(=O)[C@H](CCC(=O)O)NC(=O)[C@H](CCSC)NC(=O)[C@H](Cc1c[nH]c2ccccc12)NC(=O)[C@@H](NC(=O)[C@@H](NC(=O)[C@H](Cc1c[nH]cn1)NC(=O)[C@@H](N)CC(N)=O)[C@@H](C)O)[C@@H](C)O)[C@@H](C)CC)[C@@H](C)O)[C@@H](C)CC)[C@@H](C)CC)[C@@H](C)CC)C(=O)N[C@@H](CCCCN)C(=O)O [Peptide C52F, NHTTWMEWDREINNYTSLIHSLIEESQNLQEKNEQELLELDKWASLWNWFNI-KIK] | forms an α-helical structure in solution | 5 | 11 | 49 | 2 | 9 | 23 | 4 | 68 | – | – | – | –
Enfuvirtide | – | – | – | – | – | – | – | – | – | 10 | 44 | 18 | 139
CC[C@H](C)[C@H](NC(=O)[C@H](CCCCN)NC(=O)[C@@H](NC(=O)[C@H](CC(N)=O)NC(=O)[C@H](Cc1ccccc1)NC(=O)[C@H](Cc1c[nH]c2ccccc12)NC(=O)[C@H](CC(N)=O)NC(=O)[C@H](Cc1c[nH]c2ccccc12)NC(=O)[C@H](CC(C)C)NC(=O)[C@H](CO)NC(=O)[C@H](C)NC(=O)[C@H](Cc1c[nH]c2ccccc12)NC(=O)[C@H](CCCCN)NC(=O)[C@H](CC(=O)O)NC(=O)[C@H](CC(C)C)NC(=O)[C@H](CCC(=O)O)NC(=O)[C@H](Cc1ccccc1)NC(=O)[C@H](CC(C)C)NC(=O)[C@H](CCC(=O)O)NC(=O)[C@H](CCC(N)=O)NC(=O)[C@H](CCC(=O)O)NC(=O)[C@H](C)NC(=O)[C@H](CCCCN)NC(=O)[C@H](CCC(=O)O)NC(=O)[C@H](CCC(N)=O)NC(=O)[C@H](CC(C)C)NC(=O)[C@H](CC(N)=O)NC(=O)[C@H](CCC(N)=O)NC(=O)[C@H](CO)NC(=O)[C@H](CCC(=O)O)NC(=O)[C@H](CCC(=O)O)NC(=O)[C@H](Cc1ccccc1)NC(=O)[C@H](CC(C)C)NC(=O)[C@H](CO)NC(=O)[C@H](Cc1c[nH]cn1)NC(=O)[C@@H](NC(=O)[C@H](CC(C)C)NC(=O)[C@H](CO)NC(=O)[C@@H](NC(=O)[C@H](Cc1ccc(O)cc1)NC(=O)[C@H](CC(N)=O)NC(=O)[C@H](CC(N)=O)NC(=O)[C@@H](NC(=O)[C@H](CCC(=O)O)NC(=O)[C@H](CCCNC(=N)N)NC(=O)[C@H](CC(=O)O)NC(=O)[C@H](Cc1c[nH]c2ccccc12)NC(=O)[C@H](CCC(=O)O)NC(=O)[C@H](CCSC)NC(=O)[C@H](Cc1c[nH]c2ccccc12)NC(=O)[C@@H](NC(=O)[C@@H](NC(=O)[C@H](Cc1c[nH]cn1)NC(=O)[C@@H](N)CC(N)=O)[C@@H](C)O)[C@@H](C)O)[C@@H](C)CC)[C@@H](C)O)[C@@H](C)CC)[C@@H](C)CC)C(=O)N[C@@H](CCCCN)C(=O)O [Peptide C52L, NHTTWMEWDREINNYTSLIHSLFEESQNLQEKAEQELFELDKWASLWNWFNI-KIK] | forms an α-helical structure in solution | 6 | 12 | 17 | 3 | 11 | 20 | 3 | 61 | – | – | – | –

— patent US20070134221A1, “Stabilizing peptides” (priority 2003, published 2007)
